Calls of active or inactive are those of the source. The calls are words filed in the database; no cut-off is given here.
How the values were obtained:
NCI-H1703 [1] = test: Induction of cell cycle arrest in human NCI-H1703 cells assessed as accumulation of cells at G1/G0 phase at 10 uM incubated for 24 hrs by flow cytometric analysis (reference value: 42.06 %); assay type: functional
SNB-19 = test: Cytotoxicity against human SNB-19 cells assessed as reduction in cell viability incubated for 48 hrs by MTT assay; assay type: functional, cell-based; conditions: SNB-19, 48 h
NCI-H1703 [2] = test: Inhibition of colony formation in human NCI-H1703 cells at 5 uM incubated for 7 days by crystal violet staining analysis; assay type: functional, cell-based; conditions: time 7.0 day
NCI-H1703 [3] = test: Antiproliferative activity against human NCI-H1703 cells assessed as inhibition of cell growth incubated for 18 hrs by Edu incorporation based fluorescence microscopic analysis; assay type: functional
NCI-H1703 [4] = test: Induction of cell cycle arrest in human NCI-H1703 cells assessed as downregulation of total Rb protein level at 10 uM incubated for 24 hrs by Western blotting analysis; assay type: functional, cell-based
B16-F10 = test: Cytotoxicity against mouse B16-F10 cells assessed as reduction in cell viability incubated for 48 hrs by MTT assay; assay type: functional, cell-based; conditions: B16-F10, 48 h
NCI-H1703 [5] = test: Induction of cell cycle arrest in human NCI-H1703 cells assessed as accumulation of cells at S phase at 10 uM incubated for 24 hrs by flow cytometric analysis (reference value: 28.06 %); assay type: functional
NCI-H1703 [6] = test: Induction of cell cycle arrest in human NCI-H1703 cells assessed as accumulation of cells at G1/G0 phase at 5 uM incubated for 24 hrs by flow cytometric analysis (reference value: 42.06 %); assay type: functional
A549 [7] = test: Induction of cell cycle arrest in human A549 cells assessed as accumulation of cells at G2/M phase at 10 uM incubated for 24 hrs by flow cytometric analysis (reference value: 17.2 %); assay type: functional
A549 [8] = test: Induction of cell cycle arrest in human A549 cells assessed as accumulation of cells at G1/G0 phase at 20 uM incubated for 24 hrs by flow cytometric analysis (reference value: 51.49 %); assay type: functional
A549 [9] = test: Induction of cell cycle arrest in human A549 cells assessed as downregulation of total Rb protein level at 10 uM incubated for 24 hrs by Western blotting analysis; assay type: functional, cell-based
NCI-H1703 [10] = test: Induction of cell cycle arrest in human NCI-H1703 cells assessed as upregulation of p21 protein expression incubated for 24 hrs by Western blotting analysis; assay type: functional, cell-based
NCI-H1703 [11] = test: Induction of cell cycle arrest in human NCI-H1703 cells assessed as accumulation of cells at S phase at 5 uM incubated for 24 hrs by flow cytometric analysis (reference value: 28.06 %); assay type: functional

For C/C=C/[C@@H]1[C@H]2C[C@@H](C)CC[C@@H]2C(C)=C[C@H]1C(=O)c1c(O)c(-c2ccc(O)cc2)c[nH]c1=O [ILICICOLIN H], the Activity (NCI-H1703 [1]) was 56.04%, the IC50 (SNB-19) was 14.6 µM and the inhibition (NCI-H1703 [2]) was “Active”. The Activity (NCI-H1703 [3]) was “Dose-Dependent Effect”, the Activity (NCI-H1703 [4]) was “inactive” and the IC50 (B16-F10) was 21.6 µM. The Activity (NCI-H1703 [5]) was 24.49%, the Activity (NCI-H1703 [6]) was 50.13% and the Activity (A549 [7]) was 24%. For the same compound, the Activity (A549 [8]) was 72.12%, the Activity (A549 [9]) was “inactive” and the Activity (NCI-H1703 [10]) was “Dose-Dependent Effect”. The Activity (NCI-H1703 [11]) was 23.26%.
